This passage reports IC50 results from patent US20240316017A1, “NOVEL PYRIDINE DERIVATIVE COMPOUND AS RON INHIBITOR” (LG CHEM, LTD., priority 2021, published 2024).

The target in one experiment is RON (Homo sapiens, UniProt Q04912). The experiment in a line: Evaluation of inhibitory activity against RON (TR-FRET kinase assay). Conditions: RON protein, ULight-labeled Poly GT substrate. In kind it is biochemical. Here is the method: In order to measure the inhibitory activity of each of the compounds of Examples against RON, the IC50 of each of the compounds was measured using Time-resolved fluorescence energy transfer (TR-FRET).
Specifically, the compound was prepared to a concentration of 1 mM in 100% DMSO and was diluted 10 times in a stepwise manner through 3-fold dilution. The compound (2 ul) diluted in a stepwise manner was added to a 96-well-plate containing 48 ul of a 1× kinase reaction buffer (50 mM HEPES (pH 7.4), 0.01% Tween-20, 5 mM DTT, 0.5 mM Na3VO4, 2 mM EGTA, 10 mM MgCl2).
The RON protein was diluted to a concentration of 49.3 nM in a RON storage buffer (50 mM Tris-HCl (pH 7.5), 150 mM NaCl, 0.5 mM EDTA, 0.02% Triton X-100), and then diluted again to a concentration of 0.4 nM in a 1×kinase reaction buffer. As a substrate cocktail, a RON-specific substrate mixed solution (40 uM ULight-labeled Poly GT, 100 nM ATP) was prepared at a concentration 2 times the final reaction concentration.
(§1) Thereafter, a 384-well-plate was prepared, and 2.5 μl of each of the diluted compounds of Examples was added to a corresponding well of experimental group wells, and 2.5 μl of a 4% DMSO solution was dispensed into high control wells and low control wells.
(§2) Thereafter, 2.5 μL of 0.4 nM RON was dispensed into each of the high control wells and the experimental group wells, and 2.5 μL of the 1× kinase reaction buffer was added to the low control wells, and all the wells were centrifuged at room temperature for 40 seconds at 1,000 RPM, and then incubated at room temperature for 20-30 minutes. Then, 5 uL of the substrate cocktail (2×) was dispensed into each well, and all the wells were centrifuged at room temperature for 40 seconds at 1,000 RPM, and then incubated at room temperature for 60 minutes. Thereafter, 5 uL of 30 mM EDTA was added to each well to terminate the reaction, and all the wells were then incubated again at room temperature for 5 minutes. Thereafter, 5 uL of a 4× phosphotyrosine antibody (Perkin Elmer) containing europium was added to each well, and all the wells were then incubated at room temperature for 60 minutes. After the incubation, the 384-well-plate was read with the Vison plate reader. In this case, the excitation wavelength was 340 nm, and the emission wavelength was 620 nm and 665 nm. The IC50 value of each compound of Examples was derived using the GraphPd Prism7 program.
(In general: In TR-FRET formats the signal depends on donor and acceptor labels being close together.)

The target in another experiment is cMET (Homo sapiens, UniProt P08581). In words: Evaluation of inhibitory activity against MET (TR-FRET kinase assay). Format: biochemical. The settings on record: cMET protein, TK peptide substrate. Here is the method: In addition, in order to measure the enzyme activity inhibition for cMET, the evaluation was performed in the same manner as the enzyme activity inhibition measurement experiment for RON.
Specifically, the compound was prepared to a concentration of 1 mM in 100% DMSO and was diluted 10 times in a stepwise manner through 3-fold dilution. The compound (2 ul) diluted in a stepwise manner was added to a 96-well-plate containing 48 ul of a 1× kinase reaction buffer (50 mM HEPES (pH 7.4), 0.05% BSA, 0.005% Tween-20, 1 mM DTT, 0.5 mM MnCl2, 20 mM MgCl2).
The cMET protein was diluted to a concentration of 263 nM in a cMET storage buffer (50 mM Tris-HCl (pH 7.5), 150 mM NaCl, 0.05% Brij35, 1 mM DTT, 10% Glycerol), and then diluted again to a concentration of 2 nM in a 1× kinase reaction buffer. As a substrate cocktail, a MET-specific substrate mixed solution (5 uM TK peptide, 10 mM ATP) was prepared at a concentration 2 times the final reaction concentration.
as §1
as §2, with “of 2” for “of 0.4”, “nM cMET” for “nM RON”, “the 1×kinase” for “the 1× kinase”, “of 90” for “of 30”

Chain of RON (Q04912 25-1400, species assumed): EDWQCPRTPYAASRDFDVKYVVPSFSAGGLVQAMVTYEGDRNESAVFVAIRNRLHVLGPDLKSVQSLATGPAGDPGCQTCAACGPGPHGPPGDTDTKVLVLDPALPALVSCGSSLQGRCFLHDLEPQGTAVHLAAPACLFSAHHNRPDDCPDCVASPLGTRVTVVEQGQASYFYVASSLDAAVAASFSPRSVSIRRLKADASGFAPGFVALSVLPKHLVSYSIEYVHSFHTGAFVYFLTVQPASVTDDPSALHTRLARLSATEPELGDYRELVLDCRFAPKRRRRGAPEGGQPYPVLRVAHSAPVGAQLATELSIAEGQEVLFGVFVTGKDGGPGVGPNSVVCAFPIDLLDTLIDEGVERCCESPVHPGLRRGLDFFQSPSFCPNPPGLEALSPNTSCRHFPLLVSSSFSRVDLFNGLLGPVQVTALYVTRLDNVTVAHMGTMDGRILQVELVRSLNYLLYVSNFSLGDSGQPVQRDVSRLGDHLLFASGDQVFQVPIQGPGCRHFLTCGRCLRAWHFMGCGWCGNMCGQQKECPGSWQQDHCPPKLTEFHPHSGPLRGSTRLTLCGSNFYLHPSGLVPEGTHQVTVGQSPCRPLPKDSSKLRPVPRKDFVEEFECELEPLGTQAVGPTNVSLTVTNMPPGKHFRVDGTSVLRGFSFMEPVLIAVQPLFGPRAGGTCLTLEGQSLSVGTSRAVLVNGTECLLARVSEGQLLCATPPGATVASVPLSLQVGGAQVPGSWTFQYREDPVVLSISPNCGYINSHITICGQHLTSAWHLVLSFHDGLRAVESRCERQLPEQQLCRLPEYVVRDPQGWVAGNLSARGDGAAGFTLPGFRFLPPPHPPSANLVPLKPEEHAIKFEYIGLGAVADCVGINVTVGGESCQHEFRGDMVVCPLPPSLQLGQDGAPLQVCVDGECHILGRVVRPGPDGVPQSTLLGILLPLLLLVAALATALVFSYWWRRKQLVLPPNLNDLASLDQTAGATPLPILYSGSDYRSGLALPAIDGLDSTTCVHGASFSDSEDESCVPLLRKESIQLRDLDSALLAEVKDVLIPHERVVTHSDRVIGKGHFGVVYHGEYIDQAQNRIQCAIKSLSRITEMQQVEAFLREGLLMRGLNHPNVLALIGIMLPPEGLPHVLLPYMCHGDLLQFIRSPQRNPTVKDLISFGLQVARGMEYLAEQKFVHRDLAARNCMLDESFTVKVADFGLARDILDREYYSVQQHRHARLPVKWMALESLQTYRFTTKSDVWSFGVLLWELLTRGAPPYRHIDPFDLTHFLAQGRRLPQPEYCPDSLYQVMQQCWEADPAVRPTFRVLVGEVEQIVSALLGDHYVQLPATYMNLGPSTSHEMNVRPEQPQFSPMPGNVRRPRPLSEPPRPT
Chain of cMET (P08581 25-1390): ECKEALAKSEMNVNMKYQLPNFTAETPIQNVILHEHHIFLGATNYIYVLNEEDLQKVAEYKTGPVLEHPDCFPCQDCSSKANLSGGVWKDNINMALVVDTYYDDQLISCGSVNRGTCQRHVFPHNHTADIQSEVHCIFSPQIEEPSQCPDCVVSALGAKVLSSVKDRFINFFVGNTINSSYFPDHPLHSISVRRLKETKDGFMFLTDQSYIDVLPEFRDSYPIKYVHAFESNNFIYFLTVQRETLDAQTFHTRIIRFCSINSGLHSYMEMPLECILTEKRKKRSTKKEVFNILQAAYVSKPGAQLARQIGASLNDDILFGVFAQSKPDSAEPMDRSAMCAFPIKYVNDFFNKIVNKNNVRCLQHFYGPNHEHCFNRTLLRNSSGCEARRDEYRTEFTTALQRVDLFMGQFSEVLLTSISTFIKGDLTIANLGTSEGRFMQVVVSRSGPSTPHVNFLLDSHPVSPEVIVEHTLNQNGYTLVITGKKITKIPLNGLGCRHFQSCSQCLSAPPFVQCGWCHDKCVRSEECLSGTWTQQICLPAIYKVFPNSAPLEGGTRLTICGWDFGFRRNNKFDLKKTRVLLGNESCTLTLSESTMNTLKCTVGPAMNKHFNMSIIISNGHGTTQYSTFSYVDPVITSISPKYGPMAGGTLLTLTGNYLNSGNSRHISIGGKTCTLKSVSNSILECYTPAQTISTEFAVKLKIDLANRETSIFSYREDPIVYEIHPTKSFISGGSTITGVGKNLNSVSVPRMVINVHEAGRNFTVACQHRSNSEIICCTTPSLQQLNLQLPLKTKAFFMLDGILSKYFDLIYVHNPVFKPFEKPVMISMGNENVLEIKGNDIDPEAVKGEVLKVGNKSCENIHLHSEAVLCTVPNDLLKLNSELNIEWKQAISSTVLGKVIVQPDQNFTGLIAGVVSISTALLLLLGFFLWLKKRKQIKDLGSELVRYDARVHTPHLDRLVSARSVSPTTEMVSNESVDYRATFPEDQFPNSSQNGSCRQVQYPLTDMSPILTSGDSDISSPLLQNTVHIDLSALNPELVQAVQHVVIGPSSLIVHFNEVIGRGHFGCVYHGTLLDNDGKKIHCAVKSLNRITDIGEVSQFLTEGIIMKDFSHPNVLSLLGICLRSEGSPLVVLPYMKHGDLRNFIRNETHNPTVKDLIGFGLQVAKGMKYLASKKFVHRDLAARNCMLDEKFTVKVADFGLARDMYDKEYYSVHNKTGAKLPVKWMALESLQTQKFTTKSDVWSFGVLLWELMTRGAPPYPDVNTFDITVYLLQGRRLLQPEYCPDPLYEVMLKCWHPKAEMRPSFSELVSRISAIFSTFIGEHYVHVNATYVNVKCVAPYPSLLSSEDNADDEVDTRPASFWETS

As for `O=C(Nc1ccc(Oc2ccnc(NC(=O)C3CC3)c2)c(F)c1)c1ncn(-c2ccccc2)c1C(F)(F)F` [Example 26, N-(4-((2-cyclopropanecarboxamido)pyridin-4-yl)oxy-3-fluorophenyl)-1-phenyl-5-(trifluoromethyl)-1H-imidazole-4-carboxamide], the IC50 against RON was 50 to 500 nM; on cMET, over 5000 nM.
As to `Nc1nccc(Oc2ccc(NC(=O)c3cnn(-c4ccccc4)c3C(F)(F)F)cc2F)c1Cl` [Example 2, N-(4-((2-amino-3-chloropyridin-4-yl)oxy)-3-fluorophenyl)-1-phenyl-5-(trifluoromethyl)-1H-pyrazole-4-carboxamide], the IC50 is under 50 nM against RON and 500 to 5000 nM against cMET.
Take `Nc1ncnc(Oc2ccc(NC(=O)c3cnn(-c4ccccc4)c3-c3ccccc3)cc2F)c1Cl` [Example 59, N-[4-(6-amino-5-chloro-pyrimidin-4-yl)oxy-3-fluorophenyl]-1,5-diphenyl-pyrazole-4-carboxamide]: the IC50 was 50 to 500 nM on RON and 500 to 5000 nM on cMET.
With `O=C(Nc1ccc(Oc2ncnc(NC3CC3)c2Cl)c(F)c1)c1cnn(-c2ccccc2)c1C(F)(F)F` [Example 62, N-(4-((5-chloro-6-(cyclopropylamino)pyrimidin-4-yl)oxy)-3-fluorophenyl)-1-phenyl-5-(trifluoromethyl)-1H-pyrazole-4-carboxamide], the IC50 against RON and at cMET was over 5000 nM in each case.
Consider `Nc1nccc(Oc2ccc(NC(=O)c3cnn(-c4ccccc4)c3C(F)(F)F)cc2F)c1N` [Example 28], for which the IC50 on RON was 50 to 500 nM; at cMET, over 5000 nM.
The corresponding values for `Nc1cc(Oc2ccc(NC(=O)c3ncn(-c4ccccc4)c3C(F)(F)F)cc2F)ccn1` [Example 25] are 50 to 500 nM and over 5000 nM.
With `Cc1nc(-c2ccccc2)sc1C(=O)Nc1ccc(Oc2ccnc(N)c2Cl)c(F)c1` [Example 31, N-(4-((2-amino-3-chloropyridin-4-yl)oxy)-3-fluorophenyl)-4-methyl-2-phenylthiazole-5-carboxamide], the values for the 50% inhibitory concentration (IC50) against RON and against cMET were 500 to 5000 nM and over 5000 nM, respectively.
The corresponding values for `Cc1ccc(-n2ncc(C(=O)Nc3ccc(Oc4ncnc(N)c4Cl)c(F)c3)c2C(F)(F)F)cc1` [Example 49] are over 5000 nM and over 5000 nM.
In the case of `Nc1nccc(Oc2ccc(NC(=O)c3cnn(-c4ccccc4)c3N)cc2F)c1Cl` [Example 10, 5-amino-N-(4-((2-amino-3-chloropyridin-4-yl)oxy)-3-fluorophenyl)-1-phenyl-1H-pyrazole-4-carboxamide], the 50% inhibitory concentration (IC50) against RON is 500 to 5000 nM; at cMET, over 5000 nM.
For the compound `Cc1nn(-c2ccccc2)c(C)c1C(=O)Nc1ccc(Oc2ccnc(N)c2Cl)c(F)c1` [Example 4, N-(4-((2-amino-3-chloropyridin-4-yl)oxy)-3-fluorophenyl)-3,5-dimethyl-1-phenyl-1H-pyrazole-4-carboxamide], the IC50 is 50 to 500 nM against RON and over 5000 nM at cMET.
The corresponding values for `Cc1ccc(-n2ncc(C(=O)Nc3ccc(Oc4ccnc(N)c4Cl)c(F)c3)c2C(F)(F)F)cc1` [Example 15, N-(4-((2-amino-3-chloropyridin-4-yl)oxy)-3-fluorophenyl)-1-(p-tolyl)-5-(trifluoromethyl)-1H-pyrazole-4-carboxamide] are over 5000 nM and 500 to 5000 nM.
Take `Nc1ncnc(Oc2ccc(NC(=O)c3ccn(-c4ccccc4)n3)cc2F)c1Cl` [Example 53, N-[4-(6-amino-5-chloro-pyrimidin-4-yl)oxy-3-fluorophenyl]-1-phenyl-pyrazole-3-carboxamide]: the results for the concentration for half-maximal inhibition (IC50) against RON and on cMET were 500 to 5000 nM and over 5000 nM, respectively.
The corresponding values for `Nc1ncnc(Oc2ccc(NC(=O)c3cnn(-c4ccccc4)c3C(F)(F)F)cc2F)c1Cl` [Example 46, N-(4-((6-amino-5-chloro-pyrimidin-4-yl)oxy)-3-fluorophenyl)-1-phenyl-5-(trifluoromethyl)-1H-pyrazole-4-carboxamide] are 50 to 500 nM and over 5000 nM.
Regarding `Cc1nc(C(=O)Nc2ccc(Oc3ccnc(N)c3Cl)c(F)c2)c(C)n1-c1ccccc1` [Example 14, N-(4-((2-amino-3-chloropyridin-4-yl)oxy)-3-fluorophenyl)-2,5-dimethyl-1-phenyl-1H-imidazole-4-carboxamide], the IC50 at RON is 50 to 500 nM; on cMET, 500 to 5000 nM.
As for `Nc1nccc(Oc2ccc(NC(=O)c3cnn(-c4ccc(F)cc4)c3C(F)(F)F)cc2F)c1Cl` [Example 11, N-(4-((2-amino-3-chloropyridin-4-yl)oxy)-3-fluorophenyl)-1-(4-fluorophenyl)-5-(trifluoromethyl)-1H-pyrazole-4-carboxamide], the IC50 against RON was 500 to 5000 nM; at cMET, over 5000 nM.
Regarding `O=C(Nc1ccc(Oc2ccnc(NC(=O)C3CC3)c2Cl)c(F)c1)c1ncn(-c2ccccc2)c1C(F)(F)F` [Example 23], the IC50 on RON was 50 to 500 nM; on cMET it was over 5000 nM.
Consider `Nc1nccc(Oc2ccc(NC(=O)c3cnn(-c4ccccc4)c3C(F)F)cc2F)c1Cl` [Example 6, N-(4-((2-amino-3-chloropyridin-4-yl)oxy)-3-fluorophenyl)-5-(difluoromethyl)-1-phenyl-1H-pyrazole-4-carboxamide], for which the concentration for half-maximal inhibition (IC50) was 50 to 500 nM on RON and over 5000 nM on cMET.
Turning to `Nc1nccc(Oc2ccc(NC(=O)c3ncc(-c4ccccc4)s3)cc2F)c1Cl` [Example 32, N-(4-((2-amino-3-chloropyridin-4-yl)oxy)-3-fluorophenyl)-5-phenylthiazole-2-carboxamide], the IC50 is 500 to 5000 nM against RON and over 5000 nM on cMET.
As for `O=C(Nc1ccc(Oc2ccnc(Cl)c2)c(F)c1)c1ncn(-c2ccccc2)c1C(F)(F)F` [Example 24], the IC50 against RON and against cMET was over 5000 nM throughout.
Turning to `Cc1c(C(=O)Nc2ccc(Oc3ccnc(N)c3Cl)c(F)c2)nnn1-c1ccccc1` [Example 41, N-(4-((2-amino-3-chloropyridin-4-yl)oxy)-3-fluorophenyl)-5-methyl-1-phenyl-1H-1,2,3-triazole-4-carboxamide], the results for the IC50 against RON and at cMET were 50 to 500 nM and over 5000 nM, respectively.

The term IC50 denotes the concentration that inhibits the measured activity by half. Low readings indicate greater potency in that assay, high ones weaker potency in that assay.
